In US20250340569A1, “INHIBITORS OF KIF18A AND USES THEREOF” (Insilico Medicine IP Limited, priority 2023, published 2025) one finds IC50 data, which are given here for 19 molecules.

A value given as a limit tells only on which side of the number the result lay.

The target of test [1] is T1, Kif18A (Homo sapiens, UniProt Q8NI77).
T1 sequence (Q8NI77 1-898): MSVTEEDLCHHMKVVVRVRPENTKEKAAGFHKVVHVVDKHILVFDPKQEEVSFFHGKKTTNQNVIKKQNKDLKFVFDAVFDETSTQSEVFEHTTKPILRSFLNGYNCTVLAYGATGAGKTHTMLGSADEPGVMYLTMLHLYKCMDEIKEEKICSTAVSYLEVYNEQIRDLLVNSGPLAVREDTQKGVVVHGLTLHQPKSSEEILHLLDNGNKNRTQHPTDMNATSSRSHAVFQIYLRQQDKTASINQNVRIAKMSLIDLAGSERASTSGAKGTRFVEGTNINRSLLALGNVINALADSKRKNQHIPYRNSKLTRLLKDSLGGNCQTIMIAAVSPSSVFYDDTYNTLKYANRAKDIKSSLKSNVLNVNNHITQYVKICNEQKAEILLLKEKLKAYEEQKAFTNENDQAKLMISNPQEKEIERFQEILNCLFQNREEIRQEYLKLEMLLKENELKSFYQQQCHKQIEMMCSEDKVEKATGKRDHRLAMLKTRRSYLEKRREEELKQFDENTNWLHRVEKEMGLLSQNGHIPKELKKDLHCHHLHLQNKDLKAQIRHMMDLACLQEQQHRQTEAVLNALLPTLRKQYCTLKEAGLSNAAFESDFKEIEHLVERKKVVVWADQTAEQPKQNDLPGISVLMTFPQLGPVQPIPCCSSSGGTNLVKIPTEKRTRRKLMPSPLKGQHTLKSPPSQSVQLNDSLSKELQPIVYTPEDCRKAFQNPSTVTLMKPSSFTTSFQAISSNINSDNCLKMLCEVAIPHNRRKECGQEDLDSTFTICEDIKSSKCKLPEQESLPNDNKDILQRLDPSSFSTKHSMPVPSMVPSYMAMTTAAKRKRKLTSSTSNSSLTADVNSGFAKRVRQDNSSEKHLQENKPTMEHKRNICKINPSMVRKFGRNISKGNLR
Put plainly: KIF18A assay (ADP Glo). Particulars: biochemical assay, ADP Glo luminescence. The procedure: The KIF18A assay was performed as follows:
1.1. Prepared 1× Kinase Buffer
• a) Added 40 μL test compound to 384-well dilution plate • b) Diluted compound 1:3 in succession in DMSO for each column for 10 pts • c) Transferred 0.1 μL diluted compound solution to 384 assay plate using Echo, each column containing 2 replicates • d) Added 5 μL enzyme working solution to 384-well assay plate, centrifuge 1000 RPM for 1 min e) Incubated at 25° C. for 15 min • f) Added 5 μL ATP working solution to initiate reaction • g) Incubated at 25° C. for 60 min • h) Added 10 μL ADP Glo reagent, centrifuge 1000 RPM for 1 min • i) Incubated at 25° C. for 60 min • j) Added 20 μL kinase detection reagent, centrifuge 1000 RPM for 1 min • k) Incubated at 25° C. for 60 min • l) Read Luminescence Signal on Envision 2104 plate reader.
1.3. Data Analysis—Calculated IC50 and Plot Dose-Response Curve of Compounds:
Calculated IC50 by fitting % Inhibition values and log of compound concentrations to nonlinear regression (dose response−variable slope) with GraphPad 6.0.
[formula] • X: log of inhibitor concentration; Y: % Inhibition
(ADP-Glo turns the ADP formed in a reaction into a luminescent signal.)

In test [2] the test system is OVCAR-3. Put plainly: OVCAR3 CTG assay. It is filed as cell-based. The note with it: Homo sapiens, OVCAR-3, 144 h; CellTiter-Glo, 6 days incubation. Summed up: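 OVCAR-3 cells plated overnight, then exposed to test compounds for 6 days at 37 °C, 5% CO2; 2 mM DMSO working stock diluted 200-fold overall, staurosporine as control. Viability read by CellTiter-Glo luminescence after 10 min lysis and 10 min room-temperature stabilisation.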

The IC50 is the concentration at which inhibition is half-maximal. A high value points to weaker potency. On to `Cc1cc2nc(n1)N(C1CC1)CCCOCC1(C(F)(F)F)CCN(CC1)c1cc(NS(=O)(=O)CCO)ccc1C(=O)N2` [EX45], for which the IC50 in test [1] lay in the range of 10 to 100 nM; in test [2], 100 to 1000 nM.

Consider `[2H]C([2H])([2H])N1CCCOCC2(C(F)(F)F)CCN(CC2)c2cc(NS(=O)(=O)CCO)ccc2C(=O)Nc2cccc1n2` [EX48], for which the IC50 in test [1] and in test [2] was 10 to 100 nM in each case.

As for `O=C1Nc2ccc(=O)n(n2)CCCCOCC2(C(F)(F)F)CCN(CC2)c2cc(NS(=O)(=O)CCO)ccc21` [EX50], the IC50 in test [1] and in test [2] was 10 to 100 nM throughout.

With `Cc1cc2nc(n1)NCC(C)COCC1(C(F)(F)F)CCN(CC1)c1nc(NC(C)(C)CO)ccc1C(=O)N2` (centres unmarked) [EX55], the concentration for half-maximal inhibition (IC50) in test [1] and in test [2] was 10 to 100 nM throughout.

Consider `C[C@H]1CNc2cccc(n2)NC(=O)c2ccc(NS(=O)(=O)CCO)cc2N2CCC(C(F)(F)F)(CC2)COC1` [EX56-A], for which the IC50 was under 10 nM in test [1] and 10 to 100 nM in test [2].

As to `C[C@@H]1CNc2cccc(n2)NC(=O)c2ccc(NS(=O)(=O)CCO)cc2N2CCC(C(F)(F)F)(CC2)COC1` [EX56-B], the IC50 in test [1] and in test [2] was under 10 nM in each case.

In the case of `CC1CNc2cc(ccn2)NC(=O)c2ccc(NS(=O)(=O)CCO)cc2N2CCC(C(F)(F)F)(CC2)COC1` (centres unmarked) [EX57], the IC50 in test [1] and in test [2] was 10 to 100 nM in each case.

Take `[2H]C([2H])([2H])N1CCCOCC2(C(F)(F)F)CCN(CC2)c2cc(NS(=O)(=O)CCO)ccc2C(=O)Nc2ccnc1c2` [EX58]: the IC50 in test [1] and in test [2] was 10 to 100 nM throughout.

`Cc1cc2nc(n1)NCCCCOCC1(C(F)(F)F)CCN(CC1)c1cc(NS(=O)(=O)CCO)ccc1C(=O)N2` [EX59]: the IC50 in test [1] and in test [2] was 10 to 100 nM throughout.

With `[2H]C([2H])([2H])N1CCCOCC2(C(F)(F)F)CCN(CC2)c2cc(NS(=O)(=O)CCO)ccc2C(=O)Nc2cc(C)cc1n2` [EX67], the values for the IC50 in test [1] and in test [2] were 10 to 100 nM and 100 to 1000 nM, respectively.

Turning to `CN1CCCOCC2(C(F)(F)F)CCN(CC2)c2nc(NS(=O)(=O)CCO)ccc2C(=O)Nc2cccc1n2` [EX72], the half-maximal inhibitory concentration (IC50) was under 10 nM in test [1] and 100 to 1000 nM in test [2].

For `CN1CCCOCC2(C(F)(F)F)CCN(CC2)c2cc(NS(=O)(=O)CCO)ccc2C(=O)Nc2ccc(C#N)c1n2` [EX73], the IC50 in test [1] and in test [2] was 10 to 100 nM throughout.

Turning to `CN1CCCOCC2(C(F)(F)F)CCN(CC2)c2cc(NS(=O)(=O)CCO)ccc2C(=O)Nc2ccnc1n2` [EX74], the IC50 in test [1] is under 10 nM; in test [2], 10 to 100 nM.

In the case of `O=C1Nc2cccc(n2)N2CCO[C@@H](COCC3(C(F)(F)F)CCN(CC3)c3cc(NS(=O)(=O)CCO)ccc31)C2` [EX81-A], the figures for the IC50 in test [1] and in test [2] were 10 to 100 nM and under 10 nM, respectively.

On to `CN1CCCOCC2(C(F)(F)F)CCN(CC2)c2cc(NS(=O)(=O)CCO)ncc2C(=O)Nc2cccc1n2` [EX82], for which the IC50 in test [1] and in test [2] was 10 to 100 nM each time.

For `C[C@@H]1CCCC2(C(F)F)CCN(CC2)c2cc(NS(=O)(=O)CCO)ccc2C(=O)Nc2cccc(n2)NC1` [EX102-A], the IC50 was under 10 nM in test [1] and 10 to 100 nM in test [2].

In the case of `Cc1cc2nc(n1)N1CCOC(COCC3(C(F)(F)F)CCN(CC3)c3cc(NS(=O)(=O)CCO)c(F)cc3C(=O)N2)C1` (centres unmarked) [EX112], the IC50 in test [1] and in test [2] was under 10 nM in each case.

Consider `Cc1cc2nc(n1)N1CCO[C@H](COCC3(C(F)F)CCN(CC3)c3cc(NS(=O)(=O)CCO)ccc3C(=O)N2)C1` [EX113-A], for which the values for the IC50 in test [1] and in test [2] were 10 to 100 nM and under 10 nM, respectively.

Take `Cc1cc2nc(n1)N1CCC(F)(F)[C@@H](CCCC3(C)CCN(CC3)c3cc(NS(=O)(=O)CCO)ccc3C(=O)N2)C1` [EX115-B]: the IC50 in test [1] and in test [2] was 10 to 100 nM in each case.
